Source: patent US20090156467A1, “Thymic stromal lymphpoietin promoter and use therefor” (priority 2004, published 2009)

Key:
[1] = tested on: TA-Luc (control construct); test: TA-Luc control construct transient transfection luciferase reporter assay in LAD 2 cells; type: cell-based, human; conditions: A23187 500 ng/ml alone
From the text: (§1) A calcium ionophore alone was also able to stimulate TSLP promoter activity.

[2] = tested on: TSLP promoter (TSLP-Luc construct); test: TSLP-Luc transient transfection luciferase reporter assay in LAD 2 cells; type: cell-based, human; conditions: A23187 500 ng/ml alone
From the text: as §1

`CNc1ccc2oc(C[C@H]3O[C@@]4(CC[C@H]3C)O[C@H]([C@H](C)C(=O)c3ccc[nH]3)[C@H](C)C[C@H]4C)nc2c1C(=O)O` [A23187] was tested, and the “F/R luciferase activity, control construct TA-Luc” value [1] was 29.6 units of F/R luciferase activity and the “F/R luciferase activity, TSLP-Luc construct” value [2] was 171.0 units of F/R luciferase activity.
